Reference: patent US11319311B2, “Crystalline forms of Actinomycin D for treatment of cancer” (TRANSGENEX NANOBIOTECH, INC., priority 2018, dated 2022)
Like-named read-outs stand apart in the source and are kept apart here.

Key:
[1] = system: PANC-1; assay: Monolayer cell culture IC50 (CellTiter-Glo viability), PANC-1; format: cell-based
Experimental: (§1) Cancer cell lines listed in Table 1 were subjected for testing anti-cancer potency or the half maximal inhibitory concentration (IC50) of the D-Actinomycin (DACT) molecular complexes.
(§2) The SK-ES-1, U-2 OS, and SAOS-2 cells were cultured in a growth medium that is ATCC-formulated McCoy's 5a Medium Modified, Catalog No. 30-2007. The PC-3, PANC-1, SK-Mel-5, A549, H460, and H1299 were cultured in a growth medium that is ATCC-formulated Dulbecco's Modified Eagle's Medium (DMEM), Catalog No. 30-2002. The cells were seeded on 96-well microtiter plates with 3500 cells per well and cultured in an incubator (Model 3120, Thermo Scientific, USA) with a constant temperature at 37° C. and 5% carbon dioxide (CO2) gas for 24 hours.
(§3) The new DACT-molecular complexes were made into a series with concentration of 200 nM to 40 nM, 8 nM, 1.6 nM, 0.32 nM, and 0.064 nM. 100 μl of each solution was then added into each well to bring out the final concentration of the drug treatment at 100 nM, 20 nM, 4 nM, 0.8 nM, 0.16 nM, or 0.032 nM, respectively.
(§4) The treated cells in the 96 well plate was then further cultured at the same conditions for 72 hours and then subjected for a final cell viability measurement. The measurement used a homogeneous method to determine the number of metabolically active cells presented in each of treatments. A testing reagent for the measurement is a mixture solution of the CellTiter-Glo® 2.0 reagent (CTG, Promega Cat #G9243, USA) and growth medium in 1:1 ratio in this respect.
(§5) The 96-well plate with the new molecular complex treated cells was taken out from incubator after the 72 hours of incubation, and the treatment solution in each well was removed using a multichannel pipette, and 100 μl of the testing reagent were added into each well. The plate was then placed on a plate shaker for 15 min. The plate was covered with a piece of aluminum foil to protect the CTG luminescence during the shaking time.
(§6) Then 90 μl of the 100 μl testing reagent were transferred into an opaque-walled 96-well plate for the CTG luminescence reading on a plate reader (SynergyH4 Hybrid Reader, Biotek, USA). The luminescence intensity of each treatment was positively correlated with the number of cells survived during the treatments.
(§7) All the treatment data was normalized by comparing with the control samples that had only growth medium without any molecular complexes. The half maximal inhibitory concentration (IC50) data was calculated using the nonlinear regression model and dose-responses (inhibition) curve built in the software. Each of treatments was performed in three replications each time and repeated three times for validation. The IC50 average […] (Avg) and standard deviation (STDV) were calculated based on the three replications.

[2] = system: U-2 OS; assay: Monolayer cell culture IC50 (CellTiter-Glo viability), U-2 OS; format: cell-based
Experimental: as §1, §2, §3, §4, §5, §6, §7

[3] = system: SK-Mel-5; assay: Monolayer cell culture IC50 (CellTiter-Glo viability), SK-Mel-5; format: cell-based
Experimental: as §1, §2, §3, §4, §5, §6, §7

[4] = Accelerated stability studies (PXRD physical form stability); format: physicochemical; conditions: accelerated conditions 75% humidity and 40° C., one year, by PXRD
Experimental: Stability studies of the DACT novel forms were conducted using accelerated conditions (75% humidity and 40° C.) of which are obvious to the artisan in the field, for more than one year. […] Selected data of the novel complexes of DACT:methylparaben, propylparaben and diphenic acid proves this point.

[5] = system: PC-3; assay: Monolayer cell culture IC50 (CellTiter-Glo viability), PC-3; format: cell-based
Experimental: as §1, §2, §3, §4, §5, §6, §7

[6] = system: SK-ES-1; assay: Monolayer cell culture IC50 (CellTiter-Glo viability), SK-ES-1; format: cell-based, human; conditions: Sarcoma, SK-ES-1, monolayer, 72 hours treatment, average of three replications
Experimental: as §1, §2, §3, §4, §5, §6, §7

[7] = system: A549; assay: Monolayer cell culture IC50 (CellTiter-Glo viability), A549; format: cell-based; conditions: Homo sapiens, Lung, 72 hours treatment, average of three replications
Experimental: as §1, §2, §3, §4, §5, §6, §7

[8] = in vivo; cited from earlier work
[9] = in vivo; cited from earlier work; remark: listed apart in the source
[10] = system: H460; assay: Monolayer cell culture IC50 (CellTiter-Glo viability), H460; format: cell-based; conditions: Homo sapiens, NCI-H460, Lung, 72 hours treatment, average of three replications
Experimental: as §1, §2, §3, §4, §5, §6, §7

[11] = system: H1299; assay: Monolayer cell culture IC50 (CellTiter-Glo viability), H1299; format: cell-based; conditions: Homo sapiens, NCI-H1299, Lung, 72 hours treatment, average of three replications
Experimental: as §1, §2, §3, §4, §5, §6, §7

[12] = Pancreatic, PANC-1, monolayer, 72 hours treatment, Test I, average of three replications, read-out: IC50 Test (I) Avg
[13] = Pancreatic, PANC-1, monolayer, 72 hours treatment, Test II, average of three replications, read-out: IC50 Test (II) Avg
[14] = Pancreatic, PANC-1, monolayer, 72 hours treatment, Test III, average of three replications, read-out: IC50 Test (III) Avg
[15] = Sarcoma, U-2 OS, monolayer, 72 hours treatment, Test I, average of three replications, read-out: IC50 Test (I) Avg
[16] = Sarcoma, U-2 OS, monolayer, 72 hours treatment, Test II, average of three replications, read-out: IC50 Test (II) Avg
[17] = Sarcoma, U-2 OS, monolayer, 72 hours treatment, Test III, average of three replications, read-out: IC50 Test (III) Avg
[18] = Skin, SK-Mel-5, monolayer, 72 hours treatment, Test I, average of three replications, read-out: IC50 Test (I) Avg
[19] = Skin, SK-Mel-5, monolayer, 72 hours treatment, Test II, average of three replications, read-out: IC50 Test (II) Avg
[20] = Skin, SK-Mel-5, monolayer, 72 hours treatment, Test III, average of three replications, read-out: IC50 Test (III) Avg
[21] = Prostate, PC-3, monolayer, 72 hours treatment, Test I, average of three replications, read-out: IC50 Test (I) Avg
[22] = Prostate, PC-3, monolayer, 72 hours treatment, Test II, average of three replications, read-out: IC50 Test (II) Avg
[23] = Prostate, PC-3, monolayer, 72 hours treatment, Test III, average of three replications, read-out: IC50 Test (III) Avg
[24] = Test I, read-out: IC50 Test (I) Avg
[25] = Test II, read-out: IC50 Test (II) Avg
[26] = Test III, read-out: IC50 Test (III) Avg

Cc1c2oc3c(C)ccc(C(=O)NC4C(=O)NC(C(C)C)C(=O)N5CCCC5C(=O)N(C)CC(=O)N(C)C(C(C)C)C(=O)OC4C)c3nc-2c(C(=O)NC2C(=O)NC(C(C)C)C(=O)N3CCCC3C(=O)N(C)CC(=O)N(C)C(C(C)C)C(=O)OC2C)c(N)c1=O.O=C(O)c1ccccc1-c1ccccc1C(=O)O (centres unmarked) [DACT-diphenic Acid]
IC50 [1, 12]: 5.31 nM
IC50 [1, 13]: 3.25 nM
IC50 [1, 14]: 3.83 nM
IC50 [2, 15]: 4.34 nM
IC50 [2, 16]: 4.3 nM
IC50 [2, 17]: 2.69 nM
IC50 [3, 18]: 0.42 nM
IC50 [3, 19]: 0.32 nM
IC50 [3, 20]: 2.3 nM
physical form stability [4]: stable
IC50 [5, 21]: 6.38 nM
IC50 [5, 22]: 5.89 nM
IC50 [5, 23]: 6.55 nM

Cc1c2oc3c(C)ccc(C(=O)NC4C(=O)NC(C(C)C)C(=O)N5CCCC5C(=O)N(C)CC(=O)N(C)C(C(C)C)C(=O)OC4C)c3nc-2c(C(=O)NC2C(=O)NC(C(C)C)C(=O)N3CCCC3C(=O)N(C)CC(=O)N(C)C(C(C)C)C(=O)OC2C)c(N)c1=O.NC(CS)C(=O)O (racemic) [DACT:DL-cysteine]
physical form stability [4]: shown physical stability

Cc1c2oc3c(C)ccc(C(=O)N[C@@H]4C(=O)N[C@H](C(C)C)C(=O)N5CCC[C@H]5C(=O)N(C)CC(=O)N(C)[C@@H](C(C)C)C(=O)O[C@@H]4C)c3nc-2c(C(=O)N[C@@H]2C(=O)N[C@H](C(C)C)C(=O)N3CCC[C@H]3C(=O)N(C)CC(=O)N(C)[C@@H](C(C)C)C(=O)O[C@@H]2C)c(N)c1=O [DACT, reference compound]
IC50 ([6]; Homo sapiens, SK-ES1, Test I, read-out: IC50 Test (I) Avg): 1.03 nM
IC50 ([6]; Homo sapiens, SK-ES1, Test II, read-out: IC50 Test (II) Avg): 0.56 nM
IC50 ([6]; Homo sapiens, SK-ES1, Test III, read-out: IC50 Test (III) Avg): 0.63 nM
IC50 [7, 24]: 1.64 nM
IC50 [7, 25]: 1.85 nM
IC50 [7, 26]: 1.64 nM
absorption from the GI tract [8]: poorly absorbed
IC50 ([1]; Homo sapiens, PANC-1, 72 h, read-out: IC50 Test (I) Avg (nM)): 5.68 nM
IC50 ([1]; Homo sapiens, PANC-1, 72 h, read-out: IC50 Test (II) Avg (nM)): 4.56 nM
IC50 ([1]; Homo sapiens, PANC-1, 72 h, read-out: IC50 Test (III) Avg (nM)): 4.74 nM
irritation to tissues [9]: extremely irritating to tissues
IC50 ([2]; Homo sapiens, U2OS, 72 h, read-out: IC50 Test (I) Avg (nM)): 5.29 nM
IC50 ([2]; Homo sapiens, U2OS, 72 h, read-out: IC50 Test (II) Avg (nM)): 5.63 nM
IC50 ([2]; Homo sapiens, U2OS, 72 h, read-out: IC50 Test (III) Avg (nM)): 2.62 nM
IC50 [10, 24]: 0.35 nM
IC50 [10, 25]: 0.35 nM
IC50 [10, 26]: 0.35 nM
IC50 ([3]; Homo sapiens, SK-MEL-5, 72 h, read-out: IC50 Test (I) Avg (nM)): 0.61 nM
IC50 ([3]; Homo sapiens, SK-MEL-5, 72 h, read-out: IC50 Test (II) Avg (nM)): 0.5 nM
IC50 ([3]; Homo sapiens, SK-MEL-5, 72 h, read-out: IC50 Test (III) Avg (nM)): 2.9 nM
IC50 ([5]; Homo sapiens, PC-3, 72 h, read-out: IC50 Test (I) Avg (nM)): 8.81 nM
IC50 ([5]; Homo sapiens, PC-3, 72 h, read-out: IC50 Test (II) Avg (nM)): 7 nM
IC50 ([5]; Homo sapiens, PC-3, 72 h, read-out: IC50 Test (III) Avg (nM)): 7.28 nM
IC50 [11, 24]: 1.78 nM
IC50 [11, 25]: 1.15 nM
IC50 [11, 26]: 1.28 nM

COC(=O)c1ccc(O)cc1.Cc1c2oc3c(C)ccc(C(=O)NC4C(=O)NC(C(C)C)C(=O)N5CCCC5C(=O)N(C)CC(=O)N(C)C(C(C)C)C(=O)OC4C)c3nc-2c(C(=O)NC2C(=O)NC(C(C)C)C(=O)N3CCCC3C(=O)N(C)CC(=O)N(C)C(C(C)C)C(=O)OC2C)c(N)c1=O (centres unmarked) [DACT-methylparaben]
IC50 [6, 24]: 0.71 nM
IC50 [6, 25]: 0.51 nM
IC50 [6, 26]: 0.58 nM
IC50 [1, 12]: 4.15 nM
IC50 [1, 13]: 2.66 nM
IC50 [1, 14]: 3.48 nM
IC50 [2, 15]: 4.3 nM
IC50 [2, 16]: 4.38 nM
IC50 [2, 17]: 2.27 nM
IC50 [3, 18]: 0.36 nM
IC50 [3, 19]: 0.37 nM
IC50 [3, 20]: 2.3 nM
physical form stability [4]: stable
IC50 [5, 21]: 7.1 nM
IC50 [5, 22]: 5.53 nM
IC50 [5, 23]: 6.15 nM
